This note sets out measurements from paper PMC9688798, “Dual-Wavelength Fluorescence Polarization Immunoassay for Simultaneous Detection of Sulfonamides and Antibacterial Synergists in Milk” (Biosensors, 2022).

≈ marks a conversion by molar mass, not a printed value.

Experiment [1] relates to mAb 9C9. Description: DWFPIA for ASGs (tracer HaptenA-DSCA, λex 620 nm/λem 688 nm). It is filed as binding. Here is the method:
(§1) For single format FPIA, 70 μL/well of a standard analyte solution, 70 μL/well of tracer, and 70 μL/well mAb were added to the 96-well low-adsorption microplate. After incubation for 2 min in the dark, FP values were measured at λex 480 nm and λem 535 nm for the SAs tracers (SADMPM-EDF, SADMPM-BDF, and SADMPM-HDF) or at λex 620 nm and λem 688 nm for the ASGs tracers (HaptenA-DSCA, HaptenA-DSCH, and HaptenA-AF647). For DWFPIA detection, 70 μL/well standard cocktail solutions were mixed with 70 μL/well of tracer cocktail solutions in the working dilution and 70 μL/well of mAb cocktail solutions in the working dilution. After incubation for 2 min in the dark, the corresponding signals of the tracers were collected simultaneously.
(§2) The procedure to develop the standard curves of DWFPIA for the simultaneous detection of SMZ and TMP was follows: the standard cocktail solutions were prepared by mixing an equal quantity of the standard of SMZ and TMP. Subsequently, the optimum two tracers for each mAbs were added with equal volumes, and then mixed with the two mAbs against SMZ and TMP. The other steps followed the above protocol for FPIA. […] Y = (A − D)/[1 + (X/C) ^B] + D(1) where Y represents the FP value for the corresponding different concentrations of the standard (analyte); A and D represent the asymptotic maximum and minimum of the FP values, respectively; and B is the slope of the curve at the inflection point. C is the IC50 value that defines the standard concentration of SMZ or TMP (analyte) at 50% tracer binding, and X is SMZ/TMP in various concentrations. Furthermore, IC20–IC80 was calculated as the detectable range of the DWFPIA. According to the following equation, the cross reactivity (CR) of the DWFPIA was acquired as follows:CR= (IC50 of SMZ or TMP)/(IC50 of analyte compound) × 100%(2)
(§3) To obtain a sensitive FPIA, the effects of some physicochemical conditions on DWFPIA were evaluated by comparing the δmP/IC50 ratios under various conditions, including pH and organic solvents. Based on the optimal antibody–tracer pairs, pH values of 6.0, 7.0, 8.0, and 9.0 were tested and the other parameters of the assay remain unchanged. To clarify the effects of organic solvents on the development of DWFPIA, various concentrations of methanol and acetonitrile were tested, that is, 0%, 2.5%, 5%, 10%, 20%, and 30% (v/v) for methanol and 0%, 2.5%, 5%, 10%, and 20% (v/v) for acetonitrile. SMZ and TMP were used as the reference analyte in DWFPIA optimization to construct standard curves, seperately.

Experiment [2] has as its system cocktail mAbs of 10E6 and 9C9. Description: Nonspecific binding analysis with cocktail mAbs. Particulars: λex/λem 480/535 nm, working concentration. The method, then:
The detection system of DWFPIA consists of two distinct fluorescence signals; moreover, the interference between the short-wavelength fluorescein (EDF/BDF/HDF) and the long-wavelength fluorescein (DSCA/DSCH/AF647) could be ignored, according to our previous studies. Furthermore, the nonspecific binding was analyzed by comparing the FP changes of each tracer (or the tracer cocktail) upon the addition of the free, specific, non-specific, and cocktail mAbs at working concentrations. […] At 620 nm/688 nm, the binding of the tracer HaptenA-DSCA and its corresponding antibody mAb 9C9 was not affected by the presence of non-specific mAb 10E6, as shown in Figure 3A.

Experiment [3] relates to mAb 10E6. The experiment can be described thus: FPIA tracer-antibody binding, antibody dilution and SMZ competition with mAb 10E6. Conditions: λex/λem 480/535 nm, working concentration. Here is the method: as §1, with “After incubation for 2 min in the dark, the corresponding signals of the tracers were collected simultaneously.” left out
In DWFPIA, we mainly focused on three analytical parameters to select the optimum antibody–tracer pairs, including the half-maximal inhibitory concentration (IC50), the detection window (δmP = mPmax − mPmin), and the titer of the mAbs. […] The IC50 of DWFPIA based on the antibody–tracer pairs was assessed according to standard curves, as described in Section 2.3.3. δmP was the difference between the observed maximum FP value of the tracer bound to a saturating amount of antibody (mPmax) and the observed minimum FP value of the free tracer (mPmin). […] In addition, the binding abilities of the tracers and mAbs were assessed. […] According to the antibody dilution curve, the titer of the mAbs utilized for each tracer that satisfied the δmP criterion was calculated. […]

For experiment [4], the system named is mAb 10E6. The experiment can be described thus: DWFPIA for SAs (tracer SADMPM-HDF, λex 480 nm/λem 535 nm). In kind it is binding. Conditions: for IC50: 480 nm/535 nm. Here is the method:
as §1, §2, §3

[5] abbreviates: final concentration of 10% acetonitrile.

In the case of `COc1cc(Cc2cnc(N)nc2N)cc(OC)c1OC` [TMP, Trimethoprim], the IC50 in experiment [1] (analyte in mixed format (standard cocktail), 620 nm/688 nm) turned out to be 1.12 ng/mL (≈ 3.86 nM); in experiment [1] (analyte in single format, tracer and mAb cocktail, 620 nm/688 nm) it was 1.06 ng/mL (≈ 3.65 nM); in experiment [1] (setting [5]) it was 1.7 ng/mL (≈ 5.86 nM); in experiment [1] (without acetonitrile (start of the change)), 1.1 ng/mL (≈ 3.79 nM). In experiment [1] (cross reactivity = IC50 of TMP / IC50 of analyte × 100%), this compound yielded a CRs of 100%. Moreover, the δmP entry in experiment [1] (setting [5]) was “greater than 80 mP”.
As for `Cc1nc(NS(=O)(=O)c2ccc(N)cc2)nc(C)c1CCCCC(=O)NCCCCCCNC(=S)Nc1ccc2c(c1)C(=O)OC21c2ccc(O)cc2Oc2cc(O)ccc21` [SADMPM-HDF], the “Fluorescence Polarization, tracer and cocktail mAbs” value in experiment [2] stood at 178.8 mP. Moreover, the “Fluorescence Polarization, tracer and mAb 10E6” value in experiment [3] was 178.6 mP.
Regarding `Cc1cc(C)nc(NS(=O)(=O)c2ccc(N)cc2)n1` [SMZ, Sulfamethazine], in experiment [4] (10% final acetonitrile concentration), the δmP is listed as under 80 mP. Moreover, the IC50 in experiment [4] (analyte in mixed format (standard cocktail)) worked out at 4.67 ng/mL (≈ 16.8 nM); in experiment [4] (analyte in single format, tracer and mAb cocktail), 4.55 ng/mL (≈ 16.3 nM). The CRs in experiment [4] (cross reactivity = IC50 of SMZ / IC50 of analyte × 100%) was determined as 100%.

One may read the IC50 as the midpoint of a concentration-inhibition curve. Low readings indicate higher potency, high ones lower potency.
